For 47 compounds, melting point results are on record in patent US20010006969A1, “PYRIMIDINE NUCLEUS-CONTAINING COMPOUND AND A MEDICAMENT CONTAINING THE SAME FOR A BLOOD OXYGEN PARTIAL PRESSURE AMELIORATION, AND A METHOD FOR PREPARING THE SAME” (priority 1997, published 2001).

Structures can show the parent of a compound that is named as a salt.

One may read the melting point as the temperature of the solid-liquid transition. For the compound `C=CCNc1nc(NCC=C)c2cc(NC)ccc2n1` (as salt: hydrochloride), the melting point was in the range of 155 to 158 °C. `C=CCNc1nc(NC(C)CC)nc2ccc([N+](=O)[O-])cc12` (centres unmarked) (as salt: hydrochloride) came in with a melting point of 219 to 220 °C. As for `C=CCNc1nc(NC(C)(C)C)c2cc([N+](=O)[O-])ccc2n1` (as salt: hydrochloride), the figure is 208 to 209 °C. Turning to `C=CCNc1nc(N(CC=C)CC=C)nc2c(C)csc12` (as salt: hydrochloride), the melting point was 136 to 138 °C (dec.). The figure for `C=CCNc1nc(NC(=O)NC(C)(C)C)c2scc(C)c2n1` (as salt: hydrochloride) is 192 to 194 °C; for `C=CCNc1nc(NCc2ccco2)nc2ccc([N+](=O)[O-])cc12` (as salt: hydrochloride) [Example 33, 4-Allylamino-2-furfurylamino-6-nitroquinazoline hydrochloride] it is 217 to 218 °C; for `C=CCNc1nc(NC(C)CC)c2cc([N+](=O)[O-])ccc2n1` (stereo not drawn) (as salt: hydrochloride) [Example 49, 2-Allyiamino-4-(l-methylpropylamino)-6-nitroquinazoline hydrochloride] it is 176 to 177 °C. As for `C=CCNc1nc(NC2CCCCC2)c2scc(C)c2n1` (as salt: hydrochloride) [Example 70, 2-Allylamino-4-cyclohexylamino-7-methylthieno[3,2-d] pyrimidine hydrochloride], the figure is 140 to 142 °C; as for `C=CCNc1nc(N(CC=C)CC=C)c2scc(C)c2n1` (as salt: hydrochloride) [Example 71, 2-Allylamino-4-diallylamino-7-methylthieno[3,2-d] pyrimidine hydrochloride], 76 to 78 °C (dec.); as for `C=CCNc1nc(NCCOC)nc2ccc([N+](=O)[O-])cc12` [Example 8, 4-Allylamino-2-(2-methoxyethylamino)-6-nitroquinazoline], 164 to 165 °C.

Regarding `C=CCNc1nc(N(CC=C)CC=C)nc2ccc([N+](=O)[O-])cc12` [Example 9, 4-Allylamino-2-diallylamino-6-nitroquinazoline], the melting point is 167 to 168 °C. The figure for `C=CCNc1nc(NCC(C)(C)C)c2cc([N+](=O)[O-])ccc2n1` [Example 11, 2-Allylamino-4-neopentylamino-6-nitroauinazoline] is 216 to 217 °C. The figure for `C=CCNc1nc(NCc2ccccc2)c2cc([N+](=O)[O-])ccc2n1` [Example 12, 2-Allylamino-4-benzylamino-6-nitroquinazoline] is 235 to 236 °C; for `C=CCNc1nc(N2CCCCC2)c2cc([N+](=O)[O-])ccc2n1` [Example 13, 2-Allylamino-6-nitro-4-piperidinoquinazoline] it is 123 to 124 °C. The figure for `C=CCNc1nc(NCC=C)c2cc(N)ccc2n1` [Example 14, 2,4-Diallylamino-6-aminoquinazoline] is 212 to 215 °C. `C=CCNc1nc(N(CC=C)CC=C)nc2ccc(Cl)cc12` [Example 15, 4-Allylamino-2-diallylamino-6-chloroquinazoline]: the melting point lay in the range of 73 to 74 °C. The figure for `C=CCNc1nc(NC)nc2ccc([N+](=O)[O-])cc12` [Example 16, 4-Allylamino-2-methylamino-6-nitroquinazoline] is 238 to 239 °C; for `C=CCNc1nc(NCC)nc2ccc([N+](=O)[O-])cc12` [Example 17, 4-Allylamino-2-ethylamino-6-nitroquinazoline] it is 227 to 228 °C. For the compound `C=CCNc1nc(NC(C)(C)C)nc2ccc([N+](=O)[O-])cc12` [Example 19, 4-Allylamino-2-t-butylamino-6-nitroquinazoline], the melting point lay within 139 to 140 °C.

For the compound `C=CCNc1nc(NCCN)nc2ccc([N+](=O)[O-])cc12` [Example 20, 4-Allylamino-2-(2-aminoethylamino)-6-nitroquinazoline], the melting point fell in the range of 126 to 128 °C. As for `C=CCNc1nc(NC/C=C/c2ccccc2)c2cc([N+](=O)[O-])ccc2n1` [Example 23, 2-Allylamino-4-trans-cinnamylamino-6-nitroquinazoline], the figure is 206 to 208 °C; as for `C=CCNc1nc(NCCCC)c2cc([N+](=O)[O-])ccc2n1` [Example 24, 2-Allylamino-4-butylamino-6-nitroquinazoline], 214 to 215 °C. As for `C#CCNc1nc(NCC=C)c2cc([N+](=O)[O-])ccc2n1` [Example 29, 4-Allylamino-6-nitro-2-(2-propynylamino)quinazoline], the figure is 192 to 193 °C; as for `C=CCNc1nc(NC/C=C/C)nc2ccc([N+](=O)[O-])cc12` [Example 30, 4-Allylamino-2-(trans-2-butenylamino)-6-nitroquinazoline], 188 to 189 °C. As for `C=CCNc1nc(NCCCCCCC)nc2ccc([N+](=O)[O-])cc12` [Example 36, 4-Allylamino-2-heptylamino-6-nitroquinazoline], the figure is 173 to 174 °C. For the compound `C=CCNc1nc(NN2CCCCC2)nc2ccc([N+](=O)[O-])cc12` [Example 37, 4-Allylamino-6-nitro-2-piperidinoaminoquinazoline], the melting point lay within 221 to 222 °C. As for `C=CCNc1nc(NCCOCCC)nc2ccc([N+](=O)[O-])cc12` [Example 38, 4-Allylamino-6-nitro-2-(2-propoxyethylamino)quinazoline], the figure is 169 to 170 °C.

For `C=CCNc1nc(NC(=O)NC(C)(C)C)c2cc([N+](=O)[O-])ccc2n1` [Example 40, 2-Allylamino-4-(t-butylcarbamoyl)amino-6-nitroquinazoline], the melting point lay within 200 to 201 °C. As for `C=CCN(C(=O)NC(C)(C)C)c1nc(NC(=O)NC(C)(C)C)c2cc([N+](=O)[O-])ccc2n1` [Example 41, 2-[N-allyl-N-(t-butylcarbamoyl)amino]-4-(t-butylcarbamoyl)amino-6-nitroquinazoline], the figure is 105 to 106 °C. The figure for `C=CCNc1nc(NC(C)=O)c2cc([N+](=O)[O-])ccc2n1` [Example 42, 4-Acetylamino-2-allylamino-6-nitroquinazoline] is 253 to 254 °C; for `C=CCNc1nc(NC(=O)OCC(C)C)c2cc([N+](=O)[O-])ccc2n1` [Example 43, 2-Allylamino-4-(2-methylpropoxycarbonyl)amino-6-nitroquinazoline] it is 148 to 149 °C; for `C=CCNc1nc(NC(C)=O)nc2ccc([N+](=O)[O-])cc12` [Example 44, 2-Acetylamino-4-allylamino-6-nitroquinazoline] it is 239 to 240 °C. The figure for `C=CCNc1nc(NC(=O)NCCC)nc2ccc([N+](=O)[O-])cc12` [Example 45, 4-Allylamino-6-nitro-2-(propylcarbamoyl)aminoquinazoline] is 254 to 255 °C; for `C=CCNc1nc(NN(C)C)c2cc([N+](=O)[O-])ccc2n1` [Example 46, 2-Allylamino-4-(2,2-dimethylhydrazino)-6-nitroquinazoline] it is 145 to 146 °C. In turn, `C=CCNc1nc(NCCCCCCCCCCCC)c2cc([N+](=O)[O-])ccc2n1` [Example 47, 2-Allylamino-4-dodecylamino-6-nitroquinazoline] showed a melting point of 154 to 155 °C.

On to `C=CCNc1nc(NCCCCCCCCCCCC)nc2ccc([N+](=O)[O-])cc12` [Example 48, 4-Allylamino-2-dodecylamino-6-nitroquinazoline], for which the melting point was 148 to 155 °C. The figure for `C=CCNc1nc(NC23CC4CC(CC(C4)C2)C3)c2cc([N+](=O)[O-])ccc2n1` [Example 52, 4-(1-Adamantylamino)-2-allylamino-6-nitroquinazoline] is 224 to 225 °C. The figure for `C=CCNc1nc(NCCC(=O)N2CCCCC2)nc2ccc([N+](=O)[O-])cc12` [Example 53, 4-Allylamino-6-nitro-2-[2-(piperidinocarbonyl)ethylamino] quinazoline] is 178 to 179 °C; for `C=CCNc1nc(NCc2ccccn2)nc2ccc([N+](=O)[O-])cc12` [Example 54, 4-Allylamino-6-nitro-2-(2-pyridylmethylamino)quinazoline] it is 202 to 203 °C. The figure for `C=CCNc1nc(NCC(F)(F)F)c2cc([N+](=O)[O-])ccc2n1` [Example 55, 2-Allylamino-4-(2,2,2-trifluoroethylamino)-6-nitroquinazoline] is 215 to 216 °C; for `C=CCNc1nc(NCC(F)(F)F)nc2ccc([N+](=O)[O-])cc12` [Example 56, 4-Allylamino-2-(2,2,2-trifluoroethylamino)-6-nitroquinazoline] it is 221 to 222 °C.

For the compound `C=CCNc1nc(NCC=C(C)C)nc2ccc([N+](=O)[O-])cc12` [Example 58, 4-Allylamino-2-(3-methyl-2-butenylamino)-6-nitroquinazoline], the melting point fell in the range of 194 to 195 °C.

Consider `C=CCNc1nc(NCC=C(C)C)c2cc([N+](=O)[O-])ccc2n1` [Example 59, 2-Allylamino-4-(3-methyl-2-butenylamino)-6-nitroquinazoline], for which the melting point is 209 to 210 °C. The figure for `CC(C)=CCNc1nc(NCC=C(C)C)c2cc([N+](=O)[O-])ccc2n1` [Example 61, 2,4-Bis(3-methyl-2-butenylamino)-6-nitroquinazoline] is 168 to 172 °C; for `C=CC(C)Nc1nc(NCCCC)nc2ccc([N+](=O)[O-])cc12` (centres unmarked) [Example 62, 2-Butylamino-4-(1-methyl-2-propenylamino)-6-nitroquinazoline] it is 156 to 158 °C; for `C=CCNc1nc(NC(C)C=C)c2cc([N+](=O)[O-])ccc2n1` (centres unmarked) [Example 63, 2-Allylamino-4-(1-methyl-2-propenylamino)-6-nitroquinazoline] it is 172 to 173 °C. The figure for `C=CC(C)Nc1nc(NC(C)C=C)c2cc([N+](=O)[O-])ccc2n1` (centres unmarked) [Example 64, 2,4-Bis(1-methyl-2-propenylamino)-6-nitroquinazoline] is 122 to 125 °C.
